The source of these data is patent publication US9018241B2, “Hetero-substituted acetanilide derivatives as analgesic agents” (Janssen Pharmaceutica N.V., priority 2003, dated 2015).

Experiment [1] has as its system acetylcholine-induced abdominal constriction in mice. The experiment is described as follows: Mouse Abdominal Irritant Test (MAIT). Format: in vivo. The settings on record: 300 mg/kg oral, male CD1 mice, % Inhibition=100×(Number of Nonresponders)/(Number of Animals in Group), read-out: Effect @ 300 mg/kg (Antinociceptive Effect in Mouse Abdominal Irritant Test). How it is done:
Male CD1 mice (weighing from 18-24 g) are used to determine the antinociceptive effects associated with the compositions of the invention. The mice are all dosed orally with the compounds specified, dissolved in distilled water or suspended in 0.5% MethocelTM (hydroxypropyl methylcellulose) in water. The dosing volume is 10 mL/kg.
The procedure used in detecting and comparing the analgesic activity of different classes of analgesic drugs for which there is a good correlation with human efficacy is the prevention of acetylcholine-induced abdominal constriction in mice (H. Collier et al., Br. J. Pharmacol., 32, 295 (1968)).
Mice, intubated with various doses of the compound or vehicle such as distilled water, or distilled water 0.5% Methocel™ (hydroxypropyl methylcellulose) in water, are injected intraperitoneally with a challenge dose of acetylcholine bromide. The acetylcholine is completely dissolved in distilled water at a concentration of […] and injected at the rate of 0.20 mL/20 g. For scoring purposes, an “abdominal constriction” is defined as a contraction of the abdominal musculature accompanied by arching of the back and extension of the limbs. The mice are observed for 10 minutes for the presence or absence of the abdominal constriction response beginning immediately after receiving the acetylcholine dose, administered at a certain time after the oral administration of the test drug or vehicle. Each mouse is used only once.
The percent of inhibition of this response is calculated as follows: % Inhibition=100×(Number of Nonresponders)/(Number of Animals in Group)

Experiment [2] concerns rectal temperature of rats injected with yeast suspension. As to the kind of experiment: Antipyretic evaluation in yeast-injected rats. The class given is in vivo. Here is the method:
Groups of 10 male rats are weighed, color-coded, rectal temperatures taken (24 hours±15 minutes prior to dose administration) and recorded. Food is removed but water remains available ad libitum. Each rat is injected subcutaneously into the central dorsal region with 5 ml of a 15% yeast suspension. Twenty-three hours (±15 minutes) after yeast injection, body weights and rectal temperatures are taken and recorded. Twenty-four hours (±15 minutes) after yeast injection, the vehicle and test articles are administered orally. Temperatures are taken and recorded one hour (±5 minutes) following test article or vehicle administration. The mean rectal temperatures for the test article and vehicle control groups are calculated at 23 and 25 hours (±15 minutes) and subjected to an ANOVA followed by a Tukey HSD Multiple Comparison Test (p≦0.05)—Systat, version 9.0.

Each structure is given as a SMILES string.

Regarding `O=C(Nc1ccc(O)cc1)c1n[nH]c2ccccc12` [1H-Indazole-3-carboxylic acid (4-hydroxy-phenyl)-amide], in experiment [1], the responders at 300 mg/kg was found to be 20%.

As for `Cc1cc(C(=O)Nc2ccc(O)cc2)n[nH]1` [5-Methyl-1H-pyrazole-3-carboxylic acid (4-hydroxy-phenyl)-amide], in experiment [1], the responders at 300 mg/kg amounted to 73.3%.

For `CSCC(=O)Nc1ccc(O)cc1` [N-(4-Hydroxy-phenyl)-2-methylsulfanyl-acetamide], the responders at 300 mg/kg in experiment [1] was 45%.

Regarding `O=C(Nc1ccc(O)cc1)c1ccc[nH]1` [1H-Pyrrole-2-carboxylic acid (4-hydroxy-phenyl)-amide], in experiment [1], the responders at 300 mg/kg amounted to 86.7%.

Take `O=C(CS)Nc1ccc(O)cc1` [N-(4-Hydroxy-phenyl)-2-mercapto-acetamide]: the responders at 300 mg/kg in experiment [1] was found to be 40%.

For the compound `O=C(Nc1ccc(O)cc1)[C@H]1CCCN1` [(R)-Pyrrolidine-2-carboxylic acid (4-hydroxy-phenyl)-amide], the responders at 300 mg/kg in experiment [1] was determined as 20%.

Consider `CS(=O)(=O)CC(=O)Nc1ccc(O)cc1` [N-(4-Hydroxy-phenyl)-2-methanesulfonyl-acetamide], for which, in experiment [1], the responders at 300 mg/kg is 40%.

`O=C(Nc1ccc(O)cc1)[C@@H]1CCCN1` [(S)-Pyrrolidine-2-carboxylic acid (4-hydroxy-phenyl)-amide]: in experiment [1], the responders at 300 mg/kg was found to be 40%.

Turning to `O=C(Nc1ccc(O)cc1)c1ccccn1` [Pyridine-2-carboxylic acid (4-hydroxy-phenyl)-amide], in experiment [2] (600 mg/kg oral, ANOVA, Tukey HSD), the “decrease in body temperature relative to the vehicle-treated group” value is on record as “statistically significant (p≦1.05) decrease in body temperature”. In addition, the “Antipyresis deg C. @ 600 mpk” value in experiment [2] (600 mpk oral, one hour after administration, 24 h after yeast injection) is given as −2.17 deg C. Moreover, the responders at 300 mg/kg in experiment [1] came to 60%.
